Experimental data taken from patent US20140228423A1, “BIOMARKERS AND THERAPY FOR CANCER” (BAYLOR COLLEGE OF MEDICINE, priority 2011, published 2014).

Tested on: OVCAR8 cells
Test: High-throughput screen of Prestwick Chemical Library with or without YM155
Experimental: High-throughput screen for drugs that synergize with YM155. […] Digitonin (0.8 mg/ml) was used as a positive control for ˜100% cell death. […] The relative synergy for each drug was then calculated by subtracting measured cell survival of combinatorial treatment from the calculated c value.
To identify additional small molecules that synergize with YM155, a small library screen was performed.

SMILES	cell death (0.8 mg/ml, positive control) [%]	cell survival (concentration of 6.3 mM)
C[C@@H]1CC[C@@]2(OC1)O[C@H]1[C@@H](O)[C@H]3[C@@H]4CC[C@H]5C[C@@H](O[C@@H]6O[C@H](CO)[C@H](O[C@@H]7O[C@H](CO)[C@@H](O)[C@H](O[C@@H]8OC[C@@H](O)[C@H](O)[C@H]8O)[C@H]7O[C@@H]7O[C@H](CO)[C@H](O)[C@H](O[C@@H]8O[C@H](CO)[C@@H](O)[C@H](O)[C@H]8O)[C@H]7O)[C@H](O)[C@H]6O)[C@H](O)C[C@]5(C)[C@H]4CC[C@]3(C)[C@H]1[C@@H]2C [Digitonin]	~100	–
COc1cc(/C=C/C(=O)N2CCC=CC2=O)cc(OC)c1OC [Piperlongumine]	–	10 % of the control
